In PubChem BioAssay (NCI):
Values joined by “and” are separate entries in the source; they are usually repeats but may differ in a detail not shown here. Equal values may be shown once.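 Values below derive from 48-hour exposures of cells grown in 96-well plates, with endpoints linearly interpolated between the two concentrations bracketing the appropriate inhibition level. GI50 is the concentration that inhibits growth by half. TGI: concentration producing complete growth inhibition.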

How the values were obtained:
Assay in all cases: NCI anticancer screen, dose series, 48 h
SW-620 colon = test system: SW-620 colon
A498 renal = test system: A498 renal
MDA-MB-231 breast = test system: MDA-MB-231 breast
OVCAR-4 ovarian = test system: OVCAR-4 ovarian
SF-268 CNS = test system: SF-268 CNS
BT-549 breast = test system: BT-549 breast
OVCAR-3 ovarian = test system: OVCAR-3 ovarian
SN12C renal = test system: SN12C renal
HCT-15 colon = test system: HCT-15 colon
OVCAR-8 ovarian = test system: OVCAR-8 ovarian

Row | Structure (SMILES) | GI50 (SW-620 colon) | TGI (SW-620 colon) [µM] | GI50 (A498 renal) | TGI (A498 renal) | GI50 (MDA-MB-231 breast) [nM] | TGI (MDA-MB-231 breast) [µM] | GI50 (OVCAR-4 ovarian) | TGI (OVCAR-4 ovarian) [µM] | GI50 (SF-268 CNS) | TGI (SF-268 CNS) [µM] | GI50 (BT-549 breast) [µM] | TGI (BT-549 breast) [µM] | GI50 (OVCAR-3 ovarian) [nM] | TGI (OVCAR-3 ovarian) [µM] | GI50 (SN12C renal) | TGI (SN12C renal) [µM] | GI50 (HCT-15 colon) [nM] | TGI (HCT-15 colon) [µM] | GI50 (OVCAR-8 ovarian) [nM] | TGI (OVCAR-8 ovarian) [µM]
1 | COc1ccc(C2NCCc3c2[nH]c2ccccc32)cc1CN1CCN(c2ccc(F)cc2)CC1 (stereo not given) | 1740 nM | 3.33 | 399 nM | 4.21 µM | 1400 | 3.36 | 2280 nM | 7.22 | 2570 nM | 7.82 | 7.55 | 20 | 2100 | 4.52 | 3.47 µM | 15.5 | 1610 | 3.06 | 1890 | 3.95
2 | COc1ccc(/C=C(/C(=O)N2CCCC2)c2cc(OC)c(OC)c(OC)c2)cc1N | 2480 nM | > 100 | 1260 nM | > 100 µM | 5750 | > 100 | 28200 nM | > 100 | 5440 nM | > 100 | 6.52 | 57.8 | 992 | 6.34 | 4.86 µM | > 100 | 2280 | > 100 | 8920 | > 100
3 | C/C=C(\C)C(=O)O[C@@H]1C(O)[C@H]2OC(COC(=O)CCC(=O)CCCCCC[C@H](CCCCC)O[C@@H]3OC(C)[C@H](OC(C)=O)C(O)[C@H]3O2)[C@H]1OC(=O)/C=C/c1ccccc1 (stereo not given in full) | < 11.4 nM | > 60 | 120 nM | 5.59 µM | < 10 | < 0.0114 | 1740 nM | 42.5 | 101 nM | 15.6 | 0.019 | 13.8 | 28.4 | 13.7 | 0.0101 µM | 24.1 | 34 | > 100 | < 34.1 | > 51.4
4 | Cc1cc(S(=O)(=O)Nc2nc3ccsc3c(=O)n2Cc2ccco2)c(S)cc1Cl | > 100000 nM | > 100 | > 100000 nM | > 100 µM | > 100000 | > 100 | > 100000 nM | > 100 | 99000 nM | > 100 | > 100 | > 100 | > 100000 | > 100 | > 100 µM | > 100 | > 100000 | > 100 | > 100000 | > 100
5 | CCOC(=O)/C=C1\SC(=Nc2ccc(C#N)cc2)N(CCN2C(=O)/C(=C/C(=O)OCC)SC2=Nc2ccc(C#N)cc2)C1=O | 416 nM | 2.63 | 6820 nM | 20.5 µM | 2090 | 7.85 | 2280 nM | 29.9 | 1940 nM | 16.1 | 2.98 | 16.4 | 795 | 3.27 | 2.58 µM | 16.6 | 408 | 2.53 | 3650 | > 63.8
6 | CCCCCCCCOc1ccc(/C=N/Nc2cc(C)nc3ccc(Cl)cc23)cc1 | 1890 nM | 3.63 | 1980 nM | 3.45 µM | 1810 | 3.47 | 1820 nM | 3.55 | 2210 nM | 4.18 | 14.2 | 31.4 | 2170 | 3.82 | 1.78 µM | 3.35 | 1850 | 3.38 | 2140 | 4.84
7 | Nc1c(C(=O)c2cccc(OCCN3CCOCC3)c2)cnn1-c1ccc(F)cc1 | > 25000 nM | > 25 | > 25000 nM | > 25 µM | > 25000 | > 25 | > 25000 nM | > 25 | > 25000 nM | > 25 | > 25 | > 25 | > 25000 | > 25 | > 25 µM | > 25 | > 25000 | > 25 | > 25000 | > 25
8 | CC[N+](CC)=c1ccc2nc3c(cc(NCc4ccccc4)c4ccccc43)oc-2c1 | 302 nM | 1.4 | 751 nM | 4.62 µM | 214 | 1.72 | 176 nM | 1.63 | 307 nM | 1.51 | 1.14 | 2.51 | 95.1 | 0.557 | 1.02 µM | 2.34 | 378 | 2.29 | 362 | 2.38
9 | N#C/C(=C\c1ccc(Br)cc1)n1nnc2cccc(F)c21 | 475 nM | 1.94 | 2040 nM | 4.23 µM | 1630 | 3.46 | 1650 nM | 3.49 | 1730 nM | 3.51 | 1.45 | 3.1 | 861 | 2.15 | 1.55 µM | 3.14 | 478 | 1.89 | 2590 | 13.6
10 | O=C1c2ccccc2S(=O)(=O)N1CSC(=S)N1CCCC1 | > 100000 nM | > 100 | > 100000 nM | > 100 µM | > 100000 | > 100 | > 51700 nM | > 100 | > 100000 nM | > 100 | > 100 | > 100 | > 25600 | > 100 | > 100 µM | > 100 | > 100000 | > 100 | > 100000 | > 100
11 | COc1cc(-c2oc3c(OC)c(OC)cc(O)c3c(=O)c2OC)ccc1O | > 100000 nM and 37800 nM | > 100 | 3380 nM and 16600 nM | > 100 µM and 42.4 µM | – | > 50 | > 100000 nM and 11400 nM | > 100 | 34400 nM and 15300 nM | > 100 | – | 35.7 | – | > 50 | 3.73 µM and 12.4 µM | > 100 | – | > 100 | – | > 50
